From patent US20020045242A1, “Culture medium for culturing Lactobacillus clearans, and method for preserving said strain” (priority 1999, published 2002)
Read-outs that look alike come from different tables or passages of the source.

B1: Ovalbumin: protein-based preservative (protein, UniProt P01012 2-386, looked up)
Ovalbumin: GSIGAASMEFCFDVFKELKVHHANENIFYCPIAIMSALAMVYLGAKDSTRTQINKVVRFDKLPGFGDSIEAQCGTSVNVHSSLRDILNQITKPNDVYSFSLASRLYAEERYPILPEYLQCVKELYRGGLEPINFQTAADQARELINSWVESQTNGIIRNVLQPSSVDSQTAMVLVNAIVFKGLWEKAFKDEDTQAMPFRVTEQESKPVQMMYQIGLFRVASMASEKMKILELPFASGTMSMLVLLPDEVSGLEQLESIINFEKLTEWTSSNVMEERKIKVYLPRMKMEEKYNLTSVLMAMGITDVFSSSANLSGISSAESLKISQAVHAAHAEINEAGREVVGSAEAGVDAASVSEEFRADHPFLFCIKHIATNAVLFFGRCVSP

Key:
Lactobacillus clearans [1] = assay: Viability of Lactobacillus clearans during lyophilization with preservatives; assay type: cell-based; conditions: viability class
Method: (§1) Here, alfalfa juice and clover juice refer to liquids which are made by adding 10-fold water to alfalfa grass or clover grass to make a juice, these being used as alfalfa juice or clover juice, respectively. The amounts in which the preservatives are added are expressed in terms of the weight ratio of the preservative relative to the weight of the viable cells. […] The viability of Lactobacillus clearans is expressed as a percentage, where 100% is the viable cell count immediately after lyophilization. The viability during lyophilization is indicated as concentric circles when the viability is more than 90%, as two concentric circles to one circle when the rate is 80 to 90%, as one circle when the rate is 60 to 80%, as a square when the rate is 40 to 60%, as a triangle when the rate is 20 to 40%, and as an “x” when the rate is less than 20%.
(§2) Here, the amounts in which the preservatives were added are expressed as the weight ratio of the preservative relative to the viable cell weight. […] The viability of Lactobacillus clearans during lyophilization is indicated as two concentric circles when the viability is more than 90%, as two concentric circles to one circle when the rate is 80 to 90%, as one circle when the rate is 60 to 80%, as a square when the rate is 40 to 60%, as a triangle when the rate is 20 to 40%, and as an “x” when the rate is less than 20%.

Lactobacillus clearans [2] = assay: Viability of Lactobacillus clearans during storage with preservatives
Method: as §1, §2

Lactobacillus clearans [3] = assay: Changes in titer of Lactobacillus clearans during storage with preservatives; assay type: cell-based
Method: as §1, §2

Lactobacillus clearans [4] = assay: Effect of substances added during subculture on titer of Lactobacillus clearans; assay type: cell-based; conditions: added to medium during subculture
Text: The most important amino acids constituting the bacterial cells or enzymes were studied by type for their effects on Lactobacillus clearans.
We looked for substances capable of such enhancement or potentiation and conducted extensive- study.

[5] = protein-amino acid-based preservative used alone
[6] = Lactobacillus clearans, 3 months
[7] = Lactobacillus clearans, 6 months
[8] = Lactobacillus clearans, 12 months
[9] = protein-amino acid-based preservative
[10] = saccharides and animal-based protein·vitamin·mineral complex preservative used alone
[11] = saccharides and animal-based complex preservative
[12] = protein-amino acid-based preservative, 100% = viable cell count immediately after lyophilization, 3 months
[13] = protein-amino acid-based preservative, 100% = viable cell count immediately after lyophilization, 6 months
[14] = protein-amino acid-based preservative, 100% = viable cell count immediately after lyophilization, 12 months

Row | Molecule | Results during lyophilization (Lactobacillus clearans [1]; [5]) | Changes over time during storage, Viability (%) 3 months (Lactobacillus clearans [2]; [6]) [%] | Changes over time during storage, Viability (%) 6 months (Lactobacillus clearans [2]; [7]) [%] | Changes over time during storage, Viability (%) 12 months (Lactobacillus clearans [2]; [8]) [%] | Changes over time during storage, Changes in titer (Lactobacillus clearans [3]; [9]) | effect on titer of Lactobacillus clearans (Lactobacillus clearans [4]) | also measured
1 | NCCCC(=O)O | □ (a square when the rate is 40 to 60%) | 65 | 45 | 25 | ± |  | 
2 | C[C@H](N)C(=O)O [Alanine] | Δ (a triangle when the rate is 20 to 40%) | 30 | 15 | 5 | − |  | 
3 | N=C(N)NCCC[C@H](N)C(=O)O [Arginine] | Δ (a triangle when the rate is 20 to 40%) | 20 | 5 | 2 |  |  | Changes over time during storage, Changes in titer (Lactobacillus clearans [3]): −
4 | NC(=O)C[C@H](N)C(=O)O [Asparagine] | □ (a square when the rate is 40 to 60%) | 55 | 30 | 15 | ± |  | 
5 | N[C@@H](CS)C(=O)O [Cysteine] | ◯ (one circle when the rate is 60 to 80%) | 65 | 45 | 30 | + | extremely effective | 
6 | N[C@@H](CSSC[C@H](N)C(=O)O)C(=O)O [Cystine] | ◯ (one circle when the rate is 60 to 80%) | 70 | 50 | 35 | + | extremely effective | 
7 | NCC(=O)O [Glycine] | Δ (a triangle when the rate is 20 to 40%) | 25 | 10 | 2 | − |  | 
8 | OC[C@H]1O[C@@H](O[C@H]2[C@H](O)[C@@H](O)C(O)O[C@@H]2CO)[C@H](O)[C@@H](O)[C@H]1O (some centres unmarked) [Lactose] |  | 70 | 50 | 20 |  |  | Results during lyophilization (Lactobacillus clearans [1]; [10]): □ (a square when the rate is 40 to 60%); Changes over time during storage, Changes in titer (Lactobacillus clearans [3]; [11]): ±
9 | CC(C)C[C@H](N)C(=O)O [Leucine] | Δ (a triangle when the rate is 20 to 40%) | 25 | 10 | 3 | − |  | 
10 | NCCCC[C@H](N)C(=O)O [Lysine] | Δ (a triangle when the rate is 20 to 40%) |  |  |  | ± | extremely effective | Changes over time during storage, Viability (%) 3 months (Lactobacillus clearans [2]; [12]): 30%; Changes over time during storage, Viability (%) 6 months (Lactobacillus clearans [2]; [13]): 15%; Changes over time during storage, Viability (%) 12 months (Lactobacillus clearans [2]; [14]): 5%
11 | CSCC[C@H](N)C(=O)O [Methionine] | ◯ (one circle when the rate is 60 to 80%) | 65 | 45 | 30 | + | extremely effective | 
12 | N[C@@H](CCC(=O)[O-])C(=O)[O-].[Na+].[Na+] [Sodium glutamate] | □ (a square when the rate is 40 to 60%) |  |  |  | ± |  | Changes over time during storage, Viability (%) 3 months (Lactobacillus clearans [2]; [12]): 60%; Changes over time during storage, Viability (%) 6 months (Lactobacillus clearans [2]; [13]): 40%; Changes over time during storage, Viability (%) 12 months (Lactobacillus clearans [2]; [14]): 20%
13 | OC[C@H]1O[C@@](CO)(O[C@H]2O[C@H](CO)[C@@H](O)[C@H](O)[C@H]2O)[C@@H](O)[C@@H]1O [Sucrose] |  | 30 | 15 | 5 |  |  | Results during lyophilization (Lactobacillus clearans [1]; [10]): Δ (a triangle when the rate is 20 to 40%); Changes over time during storage, Changes in titer (Lactobacillus clearans [3]; [11]): −
14 | NCCS(=O)(=O)O [Taurine] | ◯ (one circle when the rate is 60 to 80%) | 70 | 50 | 35 | + | extremely effective | 
15 | OC[C@H]1O[C@H](O[C@H]2O[C@H](CO)[C@@H](O)[C@H](O)[C@H]2O)[C@H](O)[C@@H](O)[C@@H]1O [Trehalose] |  |  |  |  |  |  | Results during lyophilization (Lactobacillus clearans [1]; [10]): ◯ (one circle when the rate is 60 to 80%); Changes over time during storage, Viability (%) 3 months (Lactobacillus clearans [2]; saccharides and animal-based complex preservative, 100% = viable cell count immediately after lyophilization, 3 months): 75%; Changes over time during storage, Viability (%) 6 months (Lactobacillus clearans [2]; saccharides and animal-based complex preservative, 100% = viable cell count immediately after lyophilization, 6 months): 50%; Changes over time during storage, Viability (%) 12 months (Lactobacillus clearans [2]; saccharides and animal-based complex preservative, 100% = viable cell count immediately after lyophilization, 12 months): 30%; Changes over time during storage, Changes in titer (Lactobacillus clearans [3]; [11]): +
16 | N[C@@H](Cc1c[nH]c2ccccc12)C(=O)O [Tryptophan] | Δ (a triangle when the rate is 20 to 40%) | 25 | 10 | 4 | − |  | 
17 | O=C1O[C@H]([C@@H](O)CO)C(O)=C1O [Vitamin C] |  |  |  |  |  | effective | 

Row | Molecule | Results during lyophilization (Lactobacillus clearans [1]; [5]) | Changes over time during storage, Viability (%) 3 months (Lactobacillus clearans [2]; [6]) [%] | Changes over time during storage, Viability (%) 6 months (Lactobacillus clearans [2]; [7]) [%] | Changes over time during storage, Viability (%) 12 months (Lactobacillus clearans [2]; [8]) [%] | Changes over time during storage, Changes in titer (Lactobacillus clearans [3]; [9]) | effect on titer of Lactobacillus clearans (Lactobacillus clearans [4]) | also measured
18 | N[C@@H](CC(=O)O)C(=O)O [aspartic acid] |  |  |  |  |  | extremely effective | 
19 | Nc1nc2ncc(CNc3ccc(C(=O)N[C@@H](CCC(=O)O)C(=O)O)cc3)nc2c(=O)[nH]1 [folic acid] |  |  |  |  |  | effective | 
20 | N[C@@H](CCC(=O)O)C(=O)O [glutamic acid] |  |  |  |  |  | extremely effective | 
21 | [Mg+2] [magnesium] |  |  |  |  |  | effective | 
22 | [Mn+2] [manganese] |  |  |  |  |  | effective | 
23 | [Mo] [molybdenum] |  |  |  |  |  | effective | 
24 | NC(=O)c1cccnc1 [nicotinamide] |  |  |  |  |  | effective | 
25 | O=C(O)[C@@H]1CCCN1 [proline] |  |  |  |  |  | a rapid decrease in titer | 
26 | [Zn] [zinc] |  |  |  |  |  | effective | 
27 | Gelatin | X (an “x” when the rate is less than 20%) |  |  |  |  |  | Changes over time during storage, Viability (%) 3 months (Lactobacillus clearans [2]): 10%; Changes over time during storage, Viability (%) 6 months (Lactobacillus clearans [2]): 3%; Changes over time during storage, Viability (%) 12 months (Lactobacillus clearans [2]): 0%
28 | Potato starch |  |  |  |  |  |  | Changes over time during storage, Viability (%) 3 months (Lactobacillus clearans [2]): 30%; Changes over time during storage, Viability (%) 6 months (Lactobacillus clearans [2]): 20%; Changes over time during storage, Viability (%) 12 months (Lactobacillus clearans [2]): 10%
29 | Soluble starch |  |  |  |  |  |  | Changes over time during storage, Viability (%) 3 months (Lactobacillus clearans [2]): 60%; Changes over time during storage, Viability (%) 6 months (Lactobacillus clearans [2]): 40%; Changes over time during storage, Viability (%) 12 months (Lactobacillus clearans [2]): 15%
30 | Vitamin B12 |  |  |  |  |  | effective | 
31 | Vitamin E |  |  |  |  |  | effective | 
32 | Yeast extract |  |  |  |  |  |  | Changes over time during storage, Viability (%) 3 months (Lactobacillus clearans [2]): 50%; Changes over time during storage, Viability (%) 6 months (Lactobacillus clearans [2]): 30%; Changes over time during storage, Viability (%) 12 months (Lactobacillus clearans [2]): 20%
33 | calcium pantothenate |  |  |  |  |  | effective | 
34 | B1 | ◯ (one circle when the rate is 60 to 80%) |  |  |  | + |  | Changes over time during storage, Viability (%) 3 months (Lactobacillus clearans [2]): 70%; Changes over time during storage, Viability (%) 6 months (Lactobacillus clearans [2]): 50%; Changes over time during storage, Viability (%) 12 months (Lactobacillus clearans [2]): 30%
